Calls of active or inactive are those of the source. The calls are words filed in the database; no cut-off is given here.
Tests used:
[1] = molecular target: T1, Ubiquitin carboxyl-terminal hydrolase 8 (Homo sapiens) (UniProt P40818); test: Inhibition of human USP8 using Ub-AMC as substrate at 1 to 30 uM after 60 mins by fluorometric analysis
T1 sequence (whole entry): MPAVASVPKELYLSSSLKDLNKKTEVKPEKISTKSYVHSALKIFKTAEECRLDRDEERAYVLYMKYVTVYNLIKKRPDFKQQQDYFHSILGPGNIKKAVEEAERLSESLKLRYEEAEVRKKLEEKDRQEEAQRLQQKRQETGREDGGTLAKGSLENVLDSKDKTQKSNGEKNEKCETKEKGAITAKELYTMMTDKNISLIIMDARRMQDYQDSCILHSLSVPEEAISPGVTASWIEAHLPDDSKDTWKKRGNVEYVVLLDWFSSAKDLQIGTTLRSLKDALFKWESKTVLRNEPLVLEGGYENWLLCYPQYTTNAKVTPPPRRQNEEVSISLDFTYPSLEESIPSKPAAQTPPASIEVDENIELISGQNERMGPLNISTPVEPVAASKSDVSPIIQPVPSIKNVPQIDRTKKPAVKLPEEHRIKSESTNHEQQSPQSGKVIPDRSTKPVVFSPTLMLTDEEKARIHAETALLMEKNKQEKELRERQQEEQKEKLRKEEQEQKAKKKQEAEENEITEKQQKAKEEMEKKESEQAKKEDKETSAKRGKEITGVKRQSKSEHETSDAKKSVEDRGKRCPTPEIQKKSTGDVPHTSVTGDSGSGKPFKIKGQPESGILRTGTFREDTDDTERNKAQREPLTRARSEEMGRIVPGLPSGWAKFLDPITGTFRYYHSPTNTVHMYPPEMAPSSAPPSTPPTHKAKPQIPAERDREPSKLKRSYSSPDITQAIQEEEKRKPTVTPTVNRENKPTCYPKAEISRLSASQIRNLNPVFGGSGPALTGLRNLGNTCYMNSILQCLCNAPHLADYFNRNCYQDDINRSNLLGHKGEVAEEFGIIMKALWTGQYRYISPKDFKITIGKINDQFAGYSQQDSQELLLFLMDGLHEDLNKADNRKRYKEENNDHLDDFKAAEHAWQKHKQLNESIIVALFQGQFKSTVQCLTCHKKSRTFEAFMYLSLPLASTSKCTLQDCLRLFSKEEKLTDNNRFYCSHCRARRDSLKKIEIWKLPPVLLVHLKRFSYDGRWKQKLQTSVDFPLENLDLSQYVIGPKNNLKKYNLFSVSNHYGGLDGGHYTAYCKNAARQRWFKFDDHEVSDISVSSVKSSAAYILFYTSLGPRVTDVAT

[2] = molecular target: T2, Ubiquitin carboxyl-terminal hydrolase isozyme L1 (Homo sapiens, UniProt P09936); test: Inhibition of human UCH-L1 using Ub-AMC as substrate after 60 mins by fluorometric analysis
T2 sequence (P09936 whole entry): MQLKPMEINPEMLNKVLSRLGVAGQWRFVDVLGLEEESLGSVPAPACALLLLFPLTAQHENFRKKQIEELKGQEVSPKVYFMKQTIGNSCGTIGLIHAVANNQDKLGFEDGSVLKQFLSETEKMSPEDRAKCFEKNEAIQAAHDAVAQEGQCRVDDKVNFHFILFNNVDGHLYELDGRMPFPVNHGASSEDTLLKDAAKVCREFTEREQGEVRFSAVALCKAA

[3] = test system: T3, Ubiquitin carboxyl-terminal hydrolase 5 (Homo sapiens), P45974 [H818A]; test: Competitive binding affinity to human USP5 H818A mutant by SDS-PAGE analysis in presence of biotin-DMT
T3 sequence (whole entry): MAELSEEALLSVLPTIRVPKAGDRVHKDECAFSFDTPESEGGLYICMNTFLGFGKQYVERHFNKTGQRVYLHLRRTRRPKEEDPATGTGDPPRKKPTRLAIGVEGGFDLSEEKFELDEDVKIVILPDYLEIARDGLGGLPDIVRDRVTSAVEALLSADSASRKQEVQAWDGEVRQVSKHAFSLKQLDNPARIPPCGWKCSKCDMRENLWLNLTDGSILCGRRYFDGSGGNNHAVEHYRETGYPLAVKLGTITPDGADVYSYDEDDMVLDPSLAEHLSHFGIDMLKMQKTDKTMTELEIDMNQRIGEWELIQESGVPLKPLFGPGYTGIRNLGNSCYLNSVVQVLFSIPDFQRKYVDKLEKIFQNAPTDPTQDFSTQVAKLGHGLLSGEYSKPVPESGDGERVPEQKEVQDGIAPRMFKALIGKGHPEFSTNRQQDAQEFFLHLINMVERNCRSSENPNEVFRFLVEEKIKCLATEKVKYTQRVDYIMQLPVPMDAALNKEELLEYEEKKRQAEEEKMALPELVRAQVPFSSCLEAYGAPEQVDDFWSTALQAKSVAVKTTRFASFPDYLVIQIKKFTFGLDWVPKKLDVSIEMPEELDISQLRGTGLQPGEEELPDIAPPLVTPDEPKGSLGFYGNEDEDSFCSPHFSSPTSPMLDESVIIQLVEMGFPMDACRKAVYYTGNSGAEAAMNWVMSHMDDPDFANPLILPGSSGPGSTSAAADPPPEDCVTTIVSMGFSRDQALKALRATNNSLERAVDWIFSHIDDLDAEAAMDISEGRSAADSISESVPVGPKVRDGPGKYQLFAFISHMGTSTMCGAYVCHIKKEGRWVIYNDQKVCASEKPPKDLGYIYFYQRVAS

O=C(Cc1ccccc1)Oc1c(OC(=O)Cc2ccccc2)c(-c2ccc(O)cc2)c(O)c(O)c1-c1ccc(O)cc1 [VIALININ A]
inhibition [1]: inactive
IC50 [2]: 22.3 µM
Activity [3]: inactive
